Legend:
KpnFepA4984 = KpnFepA4984 (Klebsiella pneumoniae, UniProt A0ACD7TVS5, A414C); test: Fluorescence quenching binding to KpnFepA4984-FM sensor; settings: read-out: Affinity (KD) of sensor KpnFepA 4984, apo siderophore; apo (parenthetic value); A390C
Procedure: (§1) Fluorescence modifications. For modifications with maleimide fluorophores, we inoculated E. coli strains OKN3, OKN13, OKN359 or OKN1359, harboring plasmids that encoded a Cys mutant LGP, from frozen stocks into LB, grew them overnight and sub-cultured at 1% into iron-deficient MOPS minimal media, with shaking (200 rpm) at 37° C. for 10-12 h, until late exponential phase. After collecting the cells by centrifugation at 7500×g for 15 min, and washing with 50 mM NaHPO4, pH 6.7, we labeled the Cys-mutant LGP with 5 μM FM in 50 mM NaHPO4, pH 6.7 for 15 min at 37° C. FM. We terminated the labeling reactions with 100 μM β-mercaptoethanol. […] After electrophoresis, we first visualized the fluorescence labeling on a Typhoon 8600 Biomolecular Scanner (GE/Amersham), and then stained the gels with Coomassie blue R (153).
(§2) Fluorescence spectroscopic binding determinations. We observed fluorophore-labeled cells in an SLM AMINCO 8100 fluorescence spectrometer, upgraded with an OLIS operating system and software (OLIS SpectralWorks, OLIS Inc., Bogart, GA), to control its shutters, polarizers and data collection. We also utilized an OLIS Clarity fluorescence spectrometer for fluorescence assays. […] We performed each measurement in triplicate and calculated the mean value of F/F0 at each ligand concentration. […]

PaeFepA = molecular target: T1, PaeFepA (Pseudomonas aeruginosa, UniProt Q05098, S296C); test: Fluorescence quenching binding to PaeFepA-FM sensor
T1 construct: expressed in transfected cells; host or cells: E. coli OKN3/OKN13/OKN359/OKN1359 carrying a pITS23 derivative
Procedure: as §1, §2

KpnFepA1658 = KpnFepA1658 (Klebsiella pneumoniae, UniProt A6T631, A407C); test: Fluorescence quenching binding to KpnFepA1658-FM sensor; settings: read-out: Affinity (KD) of sensor KpnFepA 1658, apo siderophore; apo (parenthetic value); A382C
Procedure: as §1, §2

KpnIroN = KpnIroN (Klebsiella pneumoniae, UniProt A0ACD7U953, T234C); test: Fluorescence quenching binding to KpnIroN-FM sensor; settings: read-out: Affinity (KD) of sensor KpnIroN, apo siderophore; apo (parenthetic value); T210C
Procedure: as §1, §2

EcoFepB = molecular target: T2, EcoFepB (Escherichia coli, UniProt P0AEL6, T297C); test: biochemical; assay type: binding
T2 construct: adds a 6H-tag at either the N- or C-termini of the mature proteins; 6-His (N); made in house; host or cells: E. coli BL21 (pET28), IPTG-induced; purified on Talon Superflow
T2 sequence (P0AEL6 27-318 T297C): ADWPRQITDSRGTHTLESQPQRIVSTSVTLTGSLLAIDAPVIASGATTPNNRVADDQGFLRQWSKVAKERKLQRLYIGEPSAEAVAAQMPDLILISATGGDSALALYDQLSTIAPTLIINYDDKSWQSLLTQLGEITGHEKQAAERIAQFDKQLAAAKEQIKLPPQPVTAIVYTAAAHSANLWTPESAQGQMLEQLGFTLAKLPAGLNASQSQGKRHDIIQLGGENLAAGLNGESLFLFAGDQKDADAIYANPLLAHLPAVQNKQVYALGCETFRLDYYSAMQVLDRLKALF
From the text: Cys Mutant protein expression and fluorescent labeling. The vector for LGP production, pITS23, carries wild-type EcofepA under control of its native, Fur-regulated promoter. For expression of each of the E. coli LGP (Fiu, FhuA, IutA, Cir, BtuB) we replaced EcofepA in pITS23 with the alternate LGP structural gene, with its own signal sequence, such that the iron-regulated EcofepA promoter-controlled biosynthesis. For LGP from of other species (KpnFepA, KpnIroN, KpnFyuA, AbaBauA, PaeFepA, PaeFpvA, CcrHutA), we replaced the sequence encoding mature EcoFepA with the sequence encoding the foreign mature LGP, downstream from the EcoFepA signal sequence, and regulated by the EcofepA promoter. […] We evaluated the expression and labeling of each of the cloned LGP by growing the appropriate E. coli host strain (OKN3, OKN359, OKN13 or OKN1359), harboring the plasmid constructs of interest, in iron-deficient MOPS medium to late log phase (A600 nm=2.5-3.5). We subsequently analyzed SDS-PAGE resolved samples of bacterial OM, or purified protein fractions, for fluorescence emissions at […] before staining with Coomassie blue R (FIGS. 7, 8, 9). In some cases, we used mouse monoclonal (α-EcoFepA) antibodies or rabbit polyclonal (α-FepB) antisera to determine the expression levels and stoichiometry of FM-labeling, which allowed quantification of expression. […]

EcoFepA = molecular target: T3, EcoFepA (Escherichia coli, UniProt P05825, A720C); test: biochemical; assay type: binding
T3 construct: expressed in transfected cells; host or cells: E. coli OKN3/OKN13/OKN359/OKN1359 carrying pITS23 (fepA under its own promoter)
T3 sequence (P05825 23-746 A720C): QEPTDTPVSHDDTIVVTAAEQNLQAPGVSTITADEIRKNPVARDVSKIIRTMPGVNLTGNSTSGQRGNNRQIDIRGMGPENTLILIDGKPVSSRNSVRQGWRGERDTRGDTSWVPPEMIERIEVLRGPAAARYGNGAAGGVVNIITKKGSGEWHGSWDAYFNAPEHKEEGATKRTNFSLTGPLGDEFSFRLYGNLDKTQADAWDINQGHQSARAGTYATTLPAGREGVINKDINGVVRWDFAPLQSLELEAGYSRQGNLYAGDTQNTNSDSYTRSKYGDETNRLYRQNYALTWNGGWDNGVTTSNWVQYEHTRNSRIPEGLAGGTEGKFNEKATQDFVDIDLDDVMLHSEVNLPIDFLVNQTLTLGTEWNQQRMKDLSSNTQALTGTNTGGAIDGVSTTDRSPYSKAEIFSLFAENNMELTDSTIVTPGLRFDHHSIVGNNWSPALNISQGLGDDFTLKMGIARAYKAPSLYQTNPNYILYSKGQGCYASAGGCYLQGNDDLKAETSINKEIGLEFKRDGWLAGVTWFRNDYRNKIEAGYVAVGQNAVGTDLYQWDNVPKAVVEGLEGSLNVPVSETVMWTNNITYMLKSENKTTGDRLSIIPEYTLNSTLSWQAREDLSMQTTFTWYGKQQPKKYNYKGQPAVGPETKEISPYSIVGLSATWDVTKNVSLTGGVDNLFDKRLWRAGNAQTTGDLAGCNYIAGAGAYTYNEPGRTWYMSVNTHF
Procedure: Fluorescence modifications. For modifications with maleimide fluorophores, we inoculated E. coli strains OKN3, OKN13, OKN359 or OKN1359, harboring plasmids that encoded a Cys mutant LGP, from frozen stocks into LB, grew them overnight and sub-cultured at 1% into iron-deficient MOPS minimal media, with shaking (200 rpm) at 37° C. for 10-12 h, until late exponential phase. After collecting the cells by centrifugation at 7500×g for 15 min, and washing with 50 mM NaHPO4, pH 6.7, we labeled the Cys-mutant LGP with 5 μM FM in 50 mM NaHPO4, pH 6.7 for 15 min at 37° C. FM. We terminated the labeling reactions with 100 μM β-mercaptoethanol. After collecting the fluoresceinated cells by centrifugation at 7500×g for 15 min, and washing with 50 mM NaHPO4, pH 6.7, we re-suspended them in PBS plus 0.2% glucose. We either immediately used the labeled cells in spectroscopic experiments, or rested them on ice (up to 24 h), or added glycerol to 15% and stored them (indefinitely) as 1 mL aliquots at −70° C. In the latter case, after thawing the labeled cells we pelleted them by centrifugation in a microfuge, washed them once with and re-suspended them in PBS containing 0.2% glucose. Lastly, for evaluation of protein expression or the extent of FM-labeling we solubilized aliquots of the cell suspensions with sample buffer, and subjected them to SDS-PAGE. After electrophoresis, we first visualized the fluorescence labeling on a Typhoon 8600 Biomolecular Scanner (GE/Amersham), and then stained the gels with Coomassie blue R (153).
Fluorescence spectroscopic binding determinations. We observed fluorophore-labeled cells in an SLM AMINCO 8100 fluorescence spectrometer, upgraded with an OLIS operating system and software (OLIS SpectralWorks, OLIS Inc., Bogart, GA), to control its shutters, polarizers and data collection. We also utilized an OLIS Clarity fluorescence spectrometer for fluorescence assays. For binding determinations we deposited 2.5×10^7 labeled cells in a quartz cuvette (final volume, 2 mL) with stirring at 37° C., measured the initial fluorescence (F0), and then added increasing concentrations of an iron complex while monitoring the quenching of fluorescence emissions (F) at 520 nm. We performed each measurement in triplicate and calculated the mean value of F/F0 at each ligand concentration. We plotted 1−F/F0 vs [ligand] and analyzed the data by the 1-site binding model of Grafit 6.0.12 (Erithacus Ltd. West Sussex, UK), that fits data to a single site saturation curve, where the amount of ligand bound is plotted as a function of the amount free:
These plots yielded KD values for each of the receptor-ligand interactions, with associated standard errors.
Table 1 lists KD values from analysis of fluorescence quenching with ferric or apo (parenthetic values) siderophores or porphyrins. For each determination, we measured the extent of fluorescence quenching of an FLGP, when exposed to sequentially increasing concentrations of the listed metal complexes, as plotted in FIGS. 2-4. We performed each experiment 2 or 3 times. The tabulated KD values are from single, representative experiments, in which we collected each data point in triplicate, plotted F/F0 vs [ligand] for each quenching titration, and fitted the curves to a single site binding model using Grafit 6.012 (Erithacus Ltd, […], UK).

CcrHutA = test: Fluorescence quenching binding to CcrHutA-FM sensor; parameters: species or system Caulobacter crescentus; settings: porphyrins; Cys residue A635C, FM-labeled; NB = no binding; read-out: Affinity (KD) of sensor CcrHutA
Procedure: as §1, §2

[1] = molecular target: T4, HsaSCN (human siderocalin) (Homo sapiens, UniProt P80188, Q148C); test: Fluorescence quenching binding to purified HsaSCN-FM sensor; settings: ferric complexes and porphyrins; Cys residue Q128C, FM-labeled purified protein; NB = no binding; read-out: Affinity (KD) of sensor HsaSCN
T4 construct: adds a 6H-tag at either the N- or C-termini of the mature proteins; 6-His (N); made in house; host or cells: E. coli BL21 (pET28), IPTG-induced; purified on Talon Superflow
T4 sequence (P80188 21-198 Q148C): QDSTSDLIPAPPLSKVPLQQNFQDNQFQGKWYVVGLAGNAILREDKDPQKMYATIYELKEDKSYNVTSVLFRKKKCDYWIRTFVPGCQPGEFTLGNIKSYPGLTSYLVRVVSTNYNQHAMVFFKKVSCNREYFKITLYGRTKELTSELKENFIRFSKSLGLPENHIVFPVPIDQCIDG

Compound | Kd (KpnFepA4984) | Kd (PaeFepA) | Kd (KpnFepA1658) | Kd (KpnIroN) | Kd (EcoFepB) | Kd (EcoFepA; Affinity (KD) of sensor EcoFepA, apo siderophore, apo (parenthetic value), A698C) | Kd (EcoFepA; KD, EcoFepA / EcoFepA-FM) | Kd (CcrHutA) | Kd [1]
O=C(N[C@H]1COC(=O)[C@@H](NC(=O)c2cccc(O)c2O)COC(=O)[C@@H](NC(=O)c2cccc(O)c2O)COC1=O)c1cccc(O)c1O [Ent, enterobactin] | 3300 nM | 1700 nM | 70 nM | 40 nM | 6000 nM | 30 nM | 43 nM |  | 
hemin [Hn] |  |  |  |  |  |  |  | 150 nM | 340 nM
